# Reference: PMC11820680, “Synthesis of (1,10-Phenanthroline-κ^2N,N′)(β^2-Methyl- and β^2-PhenylAlaninate-κ^2N,O)Copper(II) Nitrate Complexes and Their Antiproliferative Activity on MCF-7 and A549 Cancer Cell Lines” (Molecules, 2025)
# Read-outs that look alike come from different tables or passages of the source.
# Tests used:
# [1] = test system: A549, MCF-7, HEK293, and HaCaT cell cultures; assay: Acridine orange / propidium iodide staining, epifluorescence microscopy; format: cell-based
# Description: The purpose of using acridine orange (AO) and propidium iodide (PI) is to take advantage of their introduction of viable cells (AO) and non-viable cells (AO/PI) by their intercalating ability in DNA of cells, which by excitation with a wavelength of 400 nm emit radiation of lower energy and longer wavelength (green and red light, respectively). This technique allows differentiating the distinct states in which a cell is found; AO is able to cross the cell membrane regardless of its membrane integrity, so the compound stains all cells, emitting green light and, in some cases, orange if it binds to RNA or where there is high lysosomal activity. PI penetrates the cell when its membrane is damaged by intercalating with higher affinity to DNA and emits red color, eclipsing the intensity caused by AO staining. Briefly, the protocol used for this technique was: 0.5×10^6 cells/mL of A549, MCF-7, HEK293, and HaCaT cells were seeded in 24-well plates on round glass coverslips. All cell cultures were treated with complexes 3 and 4 with the IC50 calculated previously. At 12 h, the coverslips were removed from the wells. Later, 5 μL of a 1:1 mixture of the dyes (50 μg/mL of AO and 100 μg/mL of PI) was added to 5 μL of sample and coverslips were flipped and placed on a slide for observation.
# [2] = test system: A549, MCF-7, HEK293, and HaCaT cell cultures; assay: Nuclei staining with Hoechst 33258; format: cell-based
# Description: Hoechst dyes are excited by UV light (~360 nm) and emit a broad spectrum of blue light with a maximum at 460 nm. Upon binding to DNA, they increase their fluorescence 30-fold, which ensures a good signal-to-noise ratio. This increase in fluorescence is due to the suppression of rotational relaxation and reduced hydration upon binding to DNA. These dyes are not intercalating; they bind to the minor groove of the DNA in the A-T rich regions. Hoechst dyes are often used to distinguish condensed pyknotic nuclei in apoptotic cells. Briefly, the Hoechst dye stock solution was prepared by dissolving the contents of one vial (100 mg) in 10 mL of deionized water to create a 10 mg/mL (16.23 mM) solution. Then, 5×10^5 cells/mL of A549, MCF-7, HEK293, and HaCaT cells were seeded in 24-well plates on round glass coverslips. Cell cultures were treated with the complexes 3 and 4 using the IC50 calculated previously. At 12 h, the coverslips were removed from the wells. Cells were fixed by adding 200 μL of 4% paraformaldehyde. Later, cells were incubated at 37 °C for 30 min and washed 2 times with PBS. Then, 200 μL Hoechst 33258 (1:1000) was added to the sample and protected from light following incubation at room temperature for 30 min. Subsequently, they were washed 2 times with PBS.
# [3] = test system: A549, MCF-7, HEK293, and HaCaT cell cultures; assay: DNA fragmentation assay (agarose gel); format: cell-based
# Description: DNA fragmentation is a characteristic process of apoptosis. During apoptosis, cell DNA is broken into fragments of specific sizes (multiples of 180–200 bp) due to the action of nucleases activated by effector caspases (caspase-3, caspase-7, and caspase-6). To visualize DNA fragmentation on agarose gels, cultures of MCF-7, A549, HEK293, and HaCaT cells treated with complexes 3 and 4 were harvested under the same conditions as the acridine orange/propidium iodide assay and their nuclei stained. Cell cultures were treated with complexes 3 and 4 using the IC50 calculated previously. Cultures were harvested and centrifuged at 12,000 rpm; pellets were washed twice with PBS and resuspended in lysis buffer (10 mM Tris-HCl (pH 7.4), 5 mM EDTA, 0.2% Triton X-100) with RNase and incubated for 1 h at 37 °C. […]. Proteinase K was then added and incubated for 2 h at 55 °C. Extraction was performed with phenol:chloroform:isoamyl. To precipitate DNA, 96% ethanol, 10 M ammonium acetate, and glycogen were added. Finally, the samples were resuspended in 1X Buffer TE and stored at −20 °C. DNA was electrophoretically separated on a 2% agarose gel with ethidium bromide and visualized by UV transillumination.
# [4] = test system: A549, MCF-7, HEK293, and HaCaT cell cultures; assay: Apoptosis detection with annexin V FITC and propidium iodide; format: cell-based; conditions: at IC50, 12 h
# Protocol: Annexin V detects apoptosis by binding to phosphatidylserine, which during this process is exposed in the outer layer of the cell membrane. Its conjugation with fluorochromes such as FITC allows visualization of this binding by epifluorescence microscopy in the green channel. The detection of apoptosis was determined with the annexin V kit conjugated with the fluorophore FITC (Thermo, cat. 88-8005-72) under the following protocol: 0.5 × 10^6 cells/mL of A549, MCF-7, HEK293, and HaCaT cells were seeded in 24-well plates on round glass coverslips treated with L-polylysine. […] Cultures were incubated for 12 h under standard culture conditions. Subsequently, the cells were washed with 500 μL of cold PBS and incubated for 5 min in a 1X solution of annexin-binding buffer. Next, 15 μL of annexin V conjugate and 5 μL of propidium iodide (PI) were added, and the mixture was incubated over 15 min at room temperature. After washing with 1X buffer, the cells were observed using an epifluorescence microscope (Nikon Eclipse E400). The red channel (TRITC) identified necrosis due to PI intercalation, while the green channel (FITC) detected apoptosis through binding of the phosphatidylserine–annexin V complex.
# HEK293 [5] = test system: HEK293; parameters: method as in doi:10.1016/j.ica.2020.119542; conditions: value taken from previous work ref 16; cited from earlier work
# HaCaT [6] = test system: HaCaT; parameters: method as in doi:10.1016/j.ica.2020.119542; conditions: value taken from previous work ref 16; cited from earlier work
# A549 (lung cancer) [7] = test system: A549 (lung cancer); parameters: method as in doi:10.1016/j.ica.2020.119542; conditions: value taken from previous work ref 16; cited from earlier work
# MCF-7 (breast cancer) [8] = test system: MCF-7 (breast cancer); parameters: method as in doi:10.1016/j.ica.2020.119542; conditions: value taken from previous work ref 16; cited from earlier work
# [9] = test system: A549, MCF-7, HaCaT and HEK293 cell lines; conditions: previously calculated value for the cell lines evaluated; cited from earlier work
# HEK293 [10] = conditions: HEK293, 24 h, MTS
# HaCaT [11] = conditions: 24 h, MTS
# A549 (lung cancer) [12] = conditions: for IC50: A549, 24 h, MTS; for Selectivity Index (SI): IC50(HaCaT)/IC50(A549)
# MCF-7 (breast cancer) [13] = conditions: for IC50: MCF-7, 24 h, MTS; for Selectivity Index (SI): IC50(HaCaT)/IC50(MCF-7)
# [14] = test system: A549, MCF-7, HaCaT and HEK293 cell lines; conditions: for IC50: all the cell lines tested; for increase in potency over cisplatin: considering the concentrations used to determine the IC50
# [15] = complexes at IC50 of Table 5, 12 h
Molecule,"morphology, AO/PI staining ([1]; cisplatin 25 µM)","nuclear morphology, Hoechst 33258 ([2]; cisplatin 25 µM)",DNA fragmentation pattern ([3]; cisplatin 25 µM),annexin V-FITC / PI fluorescence [4],IC50 (HEK293 [5]) [µM],IC50 (HaCaT [6]) [µM],IC50 (A549 (lung cancer) [7]) [µM],IC50 (MCF-7 (breast cancer) [8]) [µM],IC50 [9] [µM],IC50 (HEK293 [10]) [µM],IC50 (HaCaT [11]) [µM],IC50 (A549 (lung cancer) [12]) [µM],IC50 (MCF-7 (breast cancer) [13]) [µM],"morphology, AO/PI staining ([1]; complexes at IC50, 12 h)","nuclear morphology, Hoechst 33258 [2, 15]",DNA fragmentation pattern ([3]; complexes at IC50 of Table 5),Selectivity Index (SI) (A549 (lung cancer) [12]),Selectivity Index (SI) (MCF-7 (breast cancer) [13]),IC50 [14] [µM],increase in potency over cisplatin [14] [times]
"N.N.[Cl][Pt][Cl] [Cisplatin, cis-[PtCl2(NH3)2]]","show red nuclei, indicating a decrease in cell viability",evident change in nuclear structure,DNA fragmentation is observed,intense signal in the green channel (FITC),25,25,25,25,25,–,–,–,–,–,–,–,–,–,–,–
"O=[N+]([O-])[O-].O=[N+]([O-])[O-].[Cu+2] [Cu(NO3)2, Copper(II) nitrate]",–,–,–,–,–,–,–,–,–,47.6 ± 3.22,55.5 ± 2.03,47.8 ± 3.22,70.2 ± 2.03,–,–,–,–,–,–,–
"Aqua(1,10-phenanthroline-κ^2N,N’)(β^2-methylalaninate-κ^2N,O)copper(II) nitrate [Compound 3]",–,–,–,significant induction of apoptosis,–,–,–,–,–,0.19 ± 0.01,0.21 ± 0.02,0.24 ± 0.02,0.35 ± 0.02,"induced morphological features that, in principle, indicate a cell death process","decrease in the size of the nuclei, irreversible chromatin condensation, and nuclear fragmentation",specific indication of an apoptotic process,0.875,0.6,< 1,83
"ethanol(1,10-phenanthroline-κ^2N,N’)(β^2-phenylalaninate-κ^2N,O)copper(II) nitrate [Compound 4]",–,–,–,significant induction of apoptosis,–,–,–,–,–,0.32 ± 0.02,0.35 ± 0.09,0.22 ± 0.05,0.4 ± 0.02,"induced morphological features that, in principle, indicate a cell death process","decrease in the size of the nuclei, irreversible chromatin condensation, and nuclear fragmentation",specific indication of an apoptotic process,1.59,0.87,< 1,83
